Values joined by “and” are separate entries in the source; they are usually repeats but may differ in a detail not shown here. Equal entries are not always repeated.
Key:
[1] = tested on: THP-1 cells; assay: Inhibition of TNF-α secretion by activated monocytes; assay type: cell-based; conditions: Homo sapiens, differentiated monocytes, IgG-coated plates, read-out: IC50, inhibition of TNF-α release
Procedure: The assay was performed at A. N. Bakh Institute of Biochemistry, Russia. Human leukemia monocytic THP-1 cells obtained from Russian collection cell cultures (RCCC) were cultured in 5% CO2 humidified atmosphere at 37 °C in RPMI 1640 supplemented with 100 U mL^–1 penicillin/streptomycin, 2% FBS and 20 μM β-mercaptoethanol. THP-1 cells were incubated in 5% CO2 atmosphere at 37 °C in RPMI 1640 medium. To induce differentiation the cells were treated with IFN-g for six days. 96-well culture plate coated with combined human IgG were incubated during night at 4 °C (or for 1 h at 37 °C). To evaluate baseline cell simulation F(ab’)2 was used as a negative control in part of wells. Unbounded antibodies were removed with sodium-phosphate buffer. A solution of test compound (MT-SYK-03 or) and differentiated cells in cultivating medium were added in each well. […] Each concentration was tested in triplicate; the experiment was replicated twice. For dose–response curve see Fig. S3.

[2] = tested on: SYK-mediated signaling in human B-cell lymphoma cells; assay: Detection of SYK activity in cells by Western blot; assay type: cell-based; conditions: 1, 3, 10 uM
Procedure: Western blot was performed at A. N. Bakh Institute of Biochemistry, Russia. Human B-cell lymphoma cells obtained from Russian collection cell cultures (RCCC) were cultured in 5% CO2 humidified atmosphere at 37 °C in RPMI 1640 supplemented with 100 U mL^–1 penicillin/streptomycin and 10% heat inactivated FBS. P3H3 cells (10^6 cells in 1 ml of RPMI media with 5% FBS) were incubated with test compound or vehicle control (DMSO, 1%) for one hour at 37 °C in a 5% CO2-incubator. Then anti-IgM (1 μg/mL) was added to activate B-cell receptors and incubation continued for additional 15 min. After that the cells were washed with cooled PBS buffer and were lysed in 200 μL of ice-cold lysis buffer (62,5 mM Tris–HCl, pH 6.8, 2% w/v SDS, 10% glycerin, 50 mM DTT, 0,01% w/v BPB). Then lysates were sonicated for 20 s in ice, heated to 95–100 °C for 5 min and centrifuged for 5 min. 20 μL of obtained samples were electrophoresed on 10% SDS–polyacrylamide gel (gel blocks: 90 × 60 × 1.5 mm; current intensity: 30 mA, time: 2.5–3 h) and transferred to nitrocellulose membranes (BioRad). Western blotting was carried out according to the Amersham Pharmacia Biotech ECL Western blotting protocol. […]

[3] = Pharmacokinetics after single oral administration to rabbits; assay type: in vivo, rabbit; conditions: single oral 50 mg/kg
Procedure: Experiments were performed at ChemPartner, Shanghai, China and approved by Institutional Ethics Committee (IEC) of ChemPartner. Male Wistar 10–12 weeks old rats with body weights of 185–220 g and male New Zealand rabbits with body weights of 2.0–2.3 kg were purchased from Shanghai SLAC Laboratory Animal Co., Ltd. MT-SYK-03 was administered to the three groups of rats (six rats per group) via oral gavage at 10 mL/kg concentration, and in rabbits 5 mL/kg concentration. Blood samples were kept on ice and centrifuged (2000 g, 4 ℃, 5 min) within 15 min post sampling.

[4] = tested on: rat primary chondrocytes; assay: Hypertrophic-like changes in IL-1β treated primary chondrocytes; assay type: cell-based; conditions: for Relative fold expression, aggrecan / Relative fold expression, type II collagen: control = 1
Procedure: The experiment was performed at Atlantic Bone Screen, France. To isolate primary chondrocytes, Sprague Dawley 3 weeks old rats were euthanized and their hind limbs were collected. Knee cartilage shavings were digested with collagenase in serum-free Dulbecco’s Modified Eagle’s Medium (DMEM). Once digested, the cell suspension was centrifuged and resuspended in DMEM containing 10% fetal bovine serum (FBS). Then the cells were plated on tissue culture plastic at a density of 10 000 cells∙cm^−2 and were amplified in monolayer in culture medium (DMEM/FCS-10% supplemented with HEPES (25 mM)) until passage 1 and frozen at − 80 °C. Before study rat’s chondrocytes were seeded and cultured in monolayers in 12-well plates for 24 h. After that the cells were treated for three days with IL-1β (10 ng/mL) and MT-SYK-03; […] and vehicle (DMSO, 0.3% in cell medium) controls were also carried out in triplicate. At the end of the treatment, chondrocytes were lysed, and total RNA was purified using the NucleoSpin RNA II kit (Macherey Nagel). Total RNAs (2 μg) were retro-transcribed using M-MLV RT (Lifetechnologies) and obtained cDNAs (10 ng) were used for qPCR to determine steady-state levels of type II collagen and aggrecan mRNAs (levels of RPL19 and β-actin mRNAs were used as controls). Each reaction was set up as follows: 5 μL of iQ SYBR Green Supermix (Biorad, ref 1,708,882), 0.6 μL of forward primer (5 μM), and 0.6 μL of reverse primer (5 μM), 1.8 μL H2O, and 2 μL of cDNA. All qPCRs (72 qPCRs per marker) were run on a DNA Engine Thermal Cycler Chromo 4 in triplicates and analyzed using REST software.

[5] = male, New Zealand, rabbit, plasma

COc1cc(Nc2ncnc(Nc3cc4c(cn3)NC(=O)C(C)(C)O4)n2)cc(OC)c1OC [MT-SYK-03]
IC50 [1]: 480 nM
Anti-IgM induced autophosphorylation of SYK and phosphorylation of CD19, BTK, ERK1/2 and JNK1/2 [2]: dose-dependently inhibited
AUC(0-inf) [3, 5]: 121 µg·h/mL
Cmax [3, 5]: 8570 ng/mL and 14.1 µM
Tmax [3, 5]: 6 ± 2.19 h
k el [3, 5]: 2.67e-05 s⁻¹
AUC ([3]; male, New Zealand, rabbit, plasma, read-out: AUC48): 119 µg·h/mL
MRT24 [3]: 9.2 ± 0.66 h
τ1/2 [3]: 7.41 ± 1.32 h
Aggrecan gene expression ([4]; IL-1β 10 ng/mL, three days): increased
Type II collagen gene expression ([4]; IL-1β 10 ng/mL, three days): increased
Relative fold expression, aggrecan ([4]; IL-1β + MT-SYK-03 0.4 μM): 0.20
Relative fold expression, type II collagen ([4]; IL-1β + MT-SYK-03 0.4 μM): 0.12
Relative fold expression, aggrecan ([4]; IL-1β + MT-SYK-03 2 μM): 0.42
Relative fold expression, type II collagen ([4]; IL-1β + MT-SYK-03 2 μM): 0.12
Relative fold expression, aggrecan ([4]; IL-1β + MT-SYK-03 10 μM): 0.46
Relative fold expression, type II collagen ([4]; IL-1β + MT-SYK-03 10 μM): 0.09

From article PMC8632988, “Inhibition of SYK and cSrc kinases can protect bone and cartilage in preclinical models of osteoarthritis and rheumatoid arthritis” (Scientific Reports, 2021)
